# According to the supplement of paper PMC10307832:
# How the values were obtained:
# Experiment in all cases: relative viability (nuclei count vs DMSO), 5 days (fraction); higher = more cells survive
# [1] = compound: C/C(=N\NC(=S)N1CCC1)/C2=CC=CC=N2 + Cc1nc(NC(=O)N2CCC[C@H]2C(N)=O)sc1-c1ccnc(C(C)(C)C(F)(F)F)c1 [Alpelisib] (partner 2 µM)
# Outline: (§1)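 Lung cancer cell lines were seeded in 1536-well plates and dosed by pin tool the next day, with either a single drug or a fixed anchor-drug dose combined with five library-drug doses (not always all listed) spaced in √10 steps. Five days later, one step fixed the cells and stained their nuclei (final 0.05% Triton X-100, 1% formaldehyde, 1 ug/ml Hoechst), and nuclei were counted on 4× images. Relative viability is the nuclei count in treated wells divided by the count in vehicle wells, and each value is the median of duplicate plates.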
# [2] = compound: C/C(=N\NC(=S)N1CCC1)/C2=CC=CC=N2 + Cc1nc(Nc2ncc(C(=O)Nc3c(C)cccc3Cl)s2)cc(N2CCN(CCO)CC2)n1 [Dasatinib] (partner 0.075 µM)
# Outline: as §1
# [3] = compound: C/C(=N\NC(=S)N1CCC1)/C2=CC=CC=N2 + CC(=O)c1c(C)c2cnc(Nc3ccc(N4CCNCC4)cn3)nc2n(C2CCCC2)c1=O [Palbociclib] (partner 0.5 µM)
# Outline: as §1
# [4] = compound: C/C(=N\NC(=S)N1CCC1)/C2=CC=CC=N2 + CC(C)C[C@H](NC(=O)[C@H](Cc1ccccc1)NC(=O)c1cnccn1)B(O)O [Bortezomib] (partner 0.002 µM)
# Outline: as §1
Cell Line,relative viability ([1]; first compound 0.05 µM),relative viability ([1]; first compound 0.1581 µM),relative viability ([1]; first compound 0.5 µM),relative viability ([1]; first compound 1.581 µM),relative viability ([1]; first compound 5 µM),relative viability ([2]; first compound 0.05 µM),relative viability ([2]; first compound 0.1581 µM),relative viability ([2]; first compound 0.5 µM),relative viability ([2]; first compound 1.581 µM),relative viability ([2]; first compound 5 µM),relative viability ([3]; first compound 0.05 µM),relative viability ([3]; first compound 0.1581 µM),relative viability ([3]; first compound 0.5 µM),relative viability ([3]; first compound 1.581 µM),relative viability ([3]; first compound 5 µM),relative viability ([4]; first compound 0.05 µM),relative viability ([4]; first compound 0.1581 µM),relative viability ([4]; first compound 0.5 µM),relative viability ([4]; first compound 1.581 µM),relative viability ([4]; first compound 5 µM)
LU99A,0.174,0.0993,0.112,0.142,0.135,0.131,0.16,0.114,0.106,0.155,0.14,0.312,0.129,0.127,0.121,0.135,0.108,0.165,0.124,0.147
NCI-H1355,0.205,0.545,0.149,0.145,0.156,0.198,0.194,0.187,0.168,0.15,0.171,0.167,0.165,0.148,0.154,0.2,0.205,0.21,0.212,0.195
NCI-H520,0.159,0.144,0.124,0.138,0.154,0.175,0.117,0.162,0.178,0.166,0.119,0.139,0.121,0.114,0.151,0.137,0.167,0.126,0.102,0.166
NCI-H661,0.153,0.268,0.145,0.172,0.202,0.196,0.223,0.197,0.2,0.212,0.284,0.252,0.251,0.231,0.223,0.213,0.2,0.185,0.217,0.185
NCI-H650,0.187,0.252,0.271,0.225,0.169,0.19,0.212,0.191,0.216,0.177,0.143,0.197,0.146,0.144,0.128,0.181,0.238,0.199,0.134,0.196
NCI-H647,0.135,0.0873,0.114,0.0898,0.0916,0.0543,0.0651,0.0453,0.051,0.0532,0.0551,0.0636,0.0877,0.0726,0.0666,0.165,0.105,0.0582,0.072,0.0851
201T,0.697,0.994,0.647,0.476,0.4,0.324,0.29,0.282,0.232,0.216,0.27,0.351,0.307,0.213,0.205,0.527,0.612,0.418,0.394,0.348
NCI-H838,0.243,0.211,0.189,0.189,0.172,0.203,0.198,0.223,0.201,0.187,0.161,0.165,0.158,0.129,0.13,0.165,0.181,0.172,0.134,0.145
LK-2,0.182,0.28,0.283,0.176,0.243,0.141,0.187,0.17,0.121,0.151,0.0858,0.0843,0.0965,0.0618,0.112,,,,,
NCI-H1944,0.669,0.794,0.307,0.191,0.133,0.139,0.151,0.153,0.128,0.127,0.253,0.3,0.166,0.148,0.129,,,,,
NCI-H1650,,,,,,0.154,0.172,0.167,0.157,0.183,0.17,0.119,0.138,0.138,0.163,0.177,0.2,0.182,0.188,0.168
NCI-H596,0.371,0.256,0.267,0.227,0.313,0.234,0.29,0.245,0.224,0.225,,,,,,0.518,0.309,0.237,0.233,0.276
SK-MES-1,0.203,0.205,0.188,0.165,0.183,0.145,0.155,0.133,0.107,0.126,0.221,0.2,0.2,0.174,0.177,,,,,
NCI-H2170,0.747,0.731,0.177,0.173,0.17,0.164,0.167,0.145,0.125,0.161,0.37,0.378,0.17,0.131,0.121,,,,,
NCI-H358,0.196,0.174,0.142,0.118,0.155,0.0836,0.0975,0.102,0.0651,0.092,0.0943,0.103,0.106,0.07,0.0834,,,,,
NCI-H1563,0.528,0.493,0.492,0.573,0.596,0.394,0.462,0.408,0.229,0.312,,,,,,0.664,0.701,0.611,0.574,0.553
EBC-1,0.191,0.192,0.166,0.152,0.147,,,,,,,,,,,0.177,0.226,0.169,0.162,0.174
Calu-6,0.141,0.151,0.148,0.151,0.124,,,,,,,,,,,0.165,0.182,0.188,0.171,0.175
HCC-44,0.473,0.143,0.178,0.162,0.218,,,,,,0.976,0.886,0.563,0.556,0.451,0.335,0.234,0.221,0.19,0.239
